Laboratory results from patent publication US20040180908A1, “Adenosine derivative in polymorph ii form” (priority 2001, published 2004).

Assay: stability of the polymorph at elevated temperatures
Assay type: physicochemical
Details: for example in excess of 70° C.

CC(C)(C)c1nnc([C@H]2O[C@@H](n3cnc4c(Nc5ccc(Cl)cc5F)ncnc43)[C@H](O)[C@@H]2O)o1 [Polymorph II, (2S,3S,4R,5R)-2-(5-tert-butyl-[1,3,4]-oxadiazol-2-yl)-5-[6-(4-chloro-2-fluorophenylamino)-9H-purin-9-yl]-tetrahydrofuran-3,4-diol]
stability at elevated temperatures: particular stability at elevated temperatures
